Laboratory results taken from patent US7846473B2, “Irinotecan preparation” (Terumo Kabushiki Kaisha, priority 2004, dated 2010).

Assays:
Assay type in all cases: in vivo
[1] = system: Human lung cancer cells (QG56); assay: Antitumor effect, human lung cancer QG56 transplanted in mouse; conditions: QG56 in BALB/c nude mouse; for Inhibition rate (%) / Tumor weight (g, mean ± S.D.): 21 days after first injection
Procedure: Human lung cancer cells (QG56) with 2 to 3 mm square were transplanted subcutaneously in an inguinal region of a mouse (BALB/c nude, male, 6 weeks old, CLEA Japan, Inc.) with a needle for transplantation. […] Mice without injection of either agent were employed as a control group.
The estimated volume of each tumor and a body weight of the mouse were calculated 4, 8, 12, 16, and 21 days after the first injection. The tumors were also removed 21 days after the first injection and a weight of the tumors was measured, to thereby calculate each tumor proliferation inhibition rate, I.R. (%) by the formula as shown in Test Example 6. The results are shown in Table 16, FIG. 28, and FIG. 29.

[2] = Retentivity in blood; conditions: female, plasma, iv; BALB/c mouse, 10 mg/kg i.v. tail, elapsed time 1 hr; read-out: Concentration in plasma of irinotecan hydrochloride
[3] = Pharmacokinetics in cynomolgus monkey
Procedure: Providing 50 μL of blood plasma with 550 μL of an internal standard solution B (a methanol solution of internal standard substances) and employing centrifugal force, the supernatant was diluted with methanol 100-fold as a sample for the total CPT-11 concentration measurement. Meanwhile, Providing 50 μL of each blood plasma with 200 μL of an internal standard solution A (0.147 mol/L H3PO4 solution of internal standard substances), 200 μL thereof was subjected to a centrifugal separation (100,000×g, for 30 min, 10° C.). 100 μL in upper layer were separated and were employed solid-phase extraction, to obtain the eluent as samples for free CPT-11 (i.e., CPT-11 released from liposome, hereinafter referred as “liposome-released CPT-11”) concentration measurement, SN-38 concentration measurement, and SN-38G (SN-38 10-O-gluclonide) concentration measurement. The samples obtained were measured each concentration thereof with LC/MS/MS. FIGS. 8 to 11 show the results.

[4] = system: Mouse fibrosarcoma (Meth A); assay: Antitumor effect due to administration of a drug once or twice, Meth A; conditions: Meth A in BALB/c mouse; for Inhibition rate (%) / Tumor weight (g, mean ± S.D.): 21 days from transplantation
Procedure: Mouse fibrosarcoma (Meth A), 2.5×10^5 cells/mouse were transplanted subcutaneously in an inguinal region of a mouse (BALB/c, female, 7 weeks old, CLEA Japan, Inc.). […] Mice without injection of any agent were employed as a control group.
The tumors were also removed after 21 days from the transplantation and weight of the tumors was measured, to thereby calculate tumor proliferation inhibition rate, I.R. (%) by the formula as shown in Test Example 6.

[5] = system: human prostatic cancer cells (PC-3); assay: Antitumor effect, human prostatic cancer PC-3 implanted in mouse; conditions: PC-3 in BALB/c nude mouse; for Inhibition rate (%) / Tumor weight (g, mean ± S.D.): Day 22
Description: 2.5×10^6 cells/mouse of human prostatic cancer cells (PC-3) were implanted subcutaneously in left inguinal region of the mouse (BALB/c nude, male, 6 weeks old, Charles River Japan, Inc.). After implanting tumors, a presumptive tumor volume calculated by ½·ab^2 (a represents a longitudinal diameter of a tumor and b represents a short axis diameter thereof). […] There were mice without injection of either agent as a control group.
A presumptive tumor volume and a body weight of a mouse were measured at Days 1, 5, 9, 12, 16, and 22.
After extracting tumors and measuring a weight thereof at Day 22, further, an inhibition rate of tumor growth I.R. (%) was calculated by the following formula. I.R. %=(1−average tumor weight in a treatment group/average tumor weight in a control group)×100

[6] = Pharmacokinetics due to single administration in Meth A tumor-bearing mouse (plasma and tumor); conditions: Meth A-bearing BALB/c mouse, 10 mg/kg i.v.
[7] = system: Human colon cancer cells (HT-29); assay: Antitumor effect, human colon cancer HT-29 transplanted in mouse; conditions: HT-29 in BALB/c nude mouse; for Inhibition rate (%) / Tumor weight (g, mean ± S.D.): 21 days after injection
Procedure: Human colon cancer cells (HT-29) with 2 to 3 mm square were transplanted subcutaneously in an inguinal region of a mouse (BALB/c nude, male, 6 weeks old, CLEA Japan, Inc.) with a needle for transplantation. […] Mice without injection of either agent were employed as a control group.
The estimated volume of tumors and a body weight of the mouse were calculated at 4, 8, 12, 17, 21 days after a first injection. The tumors were also removed 21 days after the injection and the weight of the tumors were measured, to thereby calculate a tumor proliferation inhibition rate, I.R. (%) by the formula as shown in Test Example 6.

[8] = system: neutrophils and lymphocytes; assay: Hemotoxicity in rat; conditions: i.v. tail vein
Procedure: Collecting blood of 0.4 mL from a cervical vein of the rat before and after injection; and after 2, 4, 6, 13, 20, and 27 days (for 4 weeks); the number of neutrophils and lymphocytes was measured with automated hematology analyzer (Sysmex XT-2000i, Sysmex). FIGS. 12 and 13 show the results.

[9] = 12.5 mg/kg i.v., treatment on day 7
[10] = 12.5 mg/kg i.v., treatment on days 7, 11
[11] = 25 mg/kg i.v., treatment on day 7
[12] = 25 mg/kg i.v., treatment on day 11
[13] = 25 mg/kg i.v., treatment on days 7, 11
[14] = 50 mg/kg i.v., treatment on day 7
[15] = 50 mg/kg i.v., treatment on day 11
[16] = 50 mg/kg i.v., treatment on days 7, 11

In the case of `CCc1c2c(nc3ccc(OC(=O)N4CCC(N5CCCCC5)CC4)cc13)-c1cc3c(c(=O)n1C2)COC(=O)[C@]3(O)CC` [(+)-(4S)-4,11-diethyl-4-hydroxy-9-[(4-piperidino-piperidino)carbonyloxy]-1H-pyrano[3′,4′:6,7]indolizino[1,2-b]quinolin-3,14(4H,12H)-dione], the “tumor proliferation compared to the control group” value [1] was “significant tumor proliferation inhibitory effect”, the “Inhibition rate (%)” value ([1]; 25 mg/kg i.v. days 1, 5, 9) was 35.5% and the “Tumor weight (g, mean ± S.D.)” value ([1]; 25 mg/kg i.v. days 1, 5, 9) was 1.88 ± 0.43 g. For the same compound, the “Inhibition rate (%)” value ([1]; 50 mg/kg i.v. days 1, 5, 9) was 48.7%, the “Tumor weight (g, mean ± S.D.)” value ([1]; 50 mg/kg i.v. days 1, 5, 9) was 1.49 ± 0.51 g and the “Inhibition rate (%)” value ([1]; 100 mg/kg i.v. days 1, 5, 9) was 67.2%. The “Tumor weight (g, mean ± S.D.)” value ([1]; 100 mg/kg i.v. days 1, 5, 9) was 0.95 ± 0.18 g, the “effect on body weight of the mouse” value ([1]; 25-100 mg/kg i.v. days 1, 5, 9) was “didn't affect the body weight of the mouse” and the concentration at 1 h [2] was 390 ng/mL. For the same compound, the “time of highest SN-38 concentration in blood plasma” value ([3]; 10 mg/kg i.v.) was “immediately after injection”, the “time of highest free (liposome-released) CPT-11 concentration in blood plasma” value ([3]; 10 mg/kg i.v.) was “immediately after injection” and the concentration at 1 h ([3]; male, plasma, iv, 10 mg/kg i.v. over 4 min, until 1 hour, lower limit of quantification, read-out: total CPT-11 concentration in blood plasma) was < 1000 ng/mL. For the same compound, the “Inhibition rate (%)” value [4, 9] was 20.2%, the “Tumor weight (g, mean ± S.D.)” value [4, 9] was 2.82 ± 0.51 g and the “Inhibition rate (%)” value [4, 10] was 29.4%. The “Tumor weight (g, mean ± S.D.)” value [4, 10] was 2.49 ± 0.29 g, the “Inhibition rate (%)” value [4, 11] was 26.0% and the “Tumor weight (g, mean ± S.D.)” value [4, 11] was 2.61 ± 0.40 g. For the same compound, the “Inhibition rate (%)” value [4, 12] was 32.1%, the “Tumor weight (g, mean ± S.D.)” value [4, 12] was 2.40 ± 0.74 g and the “Inhibition rate (%)” value [4, 13] was 34.1%. For the same compound, the “Tumor weight (g, mean ± S.D.)” value [4, 13] was 2.33 ± 0.62 g, the “Inhibition rate (%)” value [4, 14] was 33.7% and the “Tumor weight (g, mean ± S.D.)” value [4, 14] was 2.34 ± 0.17 g. For the same compound, the “Inhibition rate (%)” value [4, 15] was 44.0%, the “Tumor weight (g, mean ± S.D.)” value [4, 15] was 1.98 ± 0.45 g and the “Inhibition rate (%)” value [4, 16] was 41.2%. The “Tumor weight (g, mean ± S.D.)” value [4, 16] was 2.08 ± 0.43 g, the “effect on body weight of the mouse” value ([4]; 12.5-50 mg/kg i.v. once or twice) was “didn't affect the body weight of the mouse” and the “tumor proliferation compared to the control group” value ([4]; one or two administrations) was “significant tumor proliferation inhibitory effect compared to the control group unless a part of the physiological saline solutions of irinotecan hydrochloride”. The “tumor growth compared to the control group” value [5] was “significant suppressive effect of tumor growth”, the “Inhibition rate (%)” value ([5]; 25 mg/kg i.v. days 1, 5, 9) was 49.0% and the “Tumor weight (g, mean ± S.D.)” value ([5]; 25 mg/kg i.v. days 1, 5, 9) was 0.64 ± 0.25 g. The “Inhibition rate (%)” value ([5]; 50 mg/kg i.v. days 1, 5, 9) was 48.0%, the “Tumor weight (g, mean ± S.D.)” value ([5]; 50 mg/kg i.v. days 1, 5, 9) was 0.66 ± 0.13 g and the “Inhibition rate (%)” value ([5]; 100 mg/kg i.v. days 1, 5, 9) was 62.3%. The “Tumor weight (g, mean ± S.D.)” value ([5]; 100 mg/kg i.v. days 1, 5, 9) was 0.48 ± 0.20 g, the “influence on body weight of the mouse” value ([5]; 25-100 mg/kg i.v. days 1, 5, 9) was “did not influence the body weight of the mouse” and the “time of maximum concentration of irinotecan hydrochloride in the tumor tissue” value [6] was 0.5 h. For the same compound, the “tumor proliferation compared with the control group” value [7] was “strong tumor proliferation inhibitory effect”, the “Inhibition rate (%)” value ([7]; 25 mg/kg i.v. days 1, 5, 9) was 38.2% and the “Tumor weight (g, mean ± S.D.)” value ([7]; 25 mg/kg i.v. days 1, 5, 9) was 0.36 ± 0.41 g. For the same compound, the “Inhibition rate (%)” value ([7]; 50 mg/kg i.v. days 1, 5, 9) was 24.9%, the “Tumor weight (g, mean ± S.D.)” value ([7]; 50 mg/kg i.v. days 1, 5, 9) was 0.44 ± 0.36 g and the “Inhibition rate (%)” value ([7]; 100 mg/kg i.v. days 1, 5, 9) was 44.0%. The “Tumor weight (g, mean ± S.D.)” value ([7]; 100 mg/kg i.v. days 1, 5, 9) was 0.33 ± 0.32 g, the “effect on body weight of the mouse” value ([7]; 25-100 mg/kg i.v. days 1, 5, 9) was “didn't affect the body weight of the mouse” and the number of lymphocytes [8] was “on a decline immediately after injection albeit only slightly”.
